| Compound | melting point |
| --- | --- |
| CCOc1cc(N(Cc2cnco2)c2ccc(C(=O)O)cc2)ccc1OC [Compound 181] | 175.6 to 176.9 °C |
| O=C(O)c1cccc(N(Cc2cnco2)c2ccc(OC(F)F)c(OCC3CC3)c2)c1 [Compound 198] | 60.2 to 61 °C |
| COc1ccc(N(Cc2cncs2)c2cccc(C(=O)O)c2)cc1O[C@@H]1CCOC1 [Compound 70] | 60.3 to 61.9 °C |
| CCOc1cc(N(Cc2cncs2)c2ccc(C(=O)O)cc2)ccc1OC [Compound 130] | 73.1 to 74.5 °C |
| COc1ccc(N(CC2CCNCC2)c2cccc(C(=O)O)c2)cc1OC1CCCC1 [Compound 50] | 228.8 to 232.1 °C |
| O=C(O)c1ccc(N(Cc2cnccn2)c2ccc(OC(F)F)c(OC(F)F)c2)cc1 [Compound 142] | 158 to 161.1 °C |
| CCCCOc1cc(N(Cc2cccnc2)c2ccc(C(=O)O)cc2)ccc1OC(F)F [Compound 128] | 133.7 to 135.1 °C |
| CCOc1cc(N(Cc2cnco2)c2cccc(C(=O)O)c2)ccc1OC [Compound 200] | 158 to 159.8 °C |
| O=C(O)c1ccc(N(Cc2cncnc2)c2ccc(OC(F)F)c(OCc3ccccc3)c2)cc1 [Compound 214] | 157.4 to 158.2 °C |
| O=C(O)c1ccc(N(Cc2cnccn2)c2ccc(OC(F)F)c(OCC3CC3)c2)cc1 [Compound 157] | 81.2 to 82.3 °C |
| COc1ccc(N(Cc2cncs2)c2ccc(C(=O)O)cc2)cc1OC(C)C [Compound 131] | 67.8 to 69.1 °C |
| O=C(O)c1ccc(N(Cc2cccnn2)c2ccc(OC(F)F)c(OC(F)F)c2)cc1 [Compound 74] | 162.6 to 164.8 °C |
| COc1ccc(N(Cc2cccnc2)c2ccc(C3NC(=O)NC3=O)cc2)cc1OC1CCCC1 (centres unmarked) [Compound 245] | 108 to 112.5 °C |
| O=C1NC(=O)C(c2cccc(N(Cc3cncs3)c3ccc(OC(F)F)c(OC(F)F)c3)c2)N1 (centres unmarked) [Compound 257] | 63.1 to 82.3 °C |
| CC(C)Oc1cc(N(Cc2cnccn2)c2cccc(C(=O)O)c2)ccc1OC(F)F [Compound 156] | 81.2 to 82 °C |
| O=C(O)c1ccc(N(Cc2cncnc2)c2ccc(OC(F)F)c(OC(F)F)c2)cc1 [Compound 80] | 186.7 to 187.4 °C |
| CC(C)Oc1cc(N(Cc2cncs2)c2ccc(C(=O)O)cc2)ccc1OC(F)F [Compound 106] | 158 to 158.5 °C |

| Compound | melting point |
| --- | --- |
| COc1ccc(N(Cc2cnco2)c2ccc(C(=O)O)cc2)cc1OC(C)C [Compound 180] | 60.3 to 61 °C |
| CCOc1cc(N(Cc2cnc(C)s2)c2ccc(C(=O)O)cc2)ccc1OC(F)F [Compound 225] | 73.1 to 74.1 °C |
| O=C(O)c1cccc(N(Cc2cncs2)c2ccc(OC(F)F)c(OC3CCCC3)c2)c1 [Compound 110] | 56.3 to 58 °C |
| CCOc1cc(N(Cc2cncs2)c2ccc(C(=O)O)cc2)ccc1OC(F)F [Compound 99] | 67 to 69.3 °C |
| COc1cc(N(Cc2cnccn2)c2ccc(C(=O)O)cc2)ccc1OC(F)F [Compound 154] | 157.2 to 157.7 °C |
| O=C(O)c1ccc(N(Cc2cncs2)c2ccc(OC(F)F)c(OC(F)F)c2)cc1 [Compound 59] | 144.3 to 145.7 °C |
| O=C(O)c1ccc(N(Cc2cnco2)c2ccc(OC(F)F)c(OC(F)F)c2)cc1 [Compound 141] | 132.4 to 135 °C |
| CC(C)Oc1cc(N(Cc2cncs2)c2cncc(C(=O)O)c2)ccc1OC(F)F [Compound 160] | 121.7 to 123.1 °C |
| COc1ccc(N(Cc2cncs2)c2cccc(C(=O)O)c2)cc1OC(F)F [Compound 149] | 86.4 to 88.3 °C |
| CC(C)Oc1cc(N(Cc2cnccn2)c2ccc(C(=O)O)cc2)ccc1OC(F)F [Compound 155] | 132.3 to 135.7 °C |
| CC(C)Oc1cc(N(Cc2cccnc2)c2cccc(C(=O)O)c2)ccc1OC(F)F [Compound 108] | 57.3 to 58.9 °C |
| CC(C)Oc1cc(N(Cc2cncs2)c2cccc(C(=O)O)c2)ccc1OC(F)F [Compound 109] | 58.6 to 60 °C |
| COc1cc(N(Cc2cncnc2)c2ccc(C(=O)O)cc2)ccc1OCC(F)(F)F [Compound 186] | 208.7 to 209.9 °C |
| CC(C)Oc1cc(N(Cc2cccnc2)c2ccc(C(=O)O)cc2)ccc1OC(F)F [Compound 107] | 66.5 to 67.9 °C |
| COc1ccc(N(Cc2cccnc2)c2cccc(C3NC(=O)NC3=O)c2)cc1OC1CCCC1 (centres unmarked) [Compound 239] | 99.7 to 105 °C |
| CNS(=O)(=O)c1ccc(N(Cc2cncs2)c2ccc(OC(F)F)c(OC(F)F)c2)cc1 [Compound 165] | 105.5 to 106.4 °C |

Second part, the compound after the results:

| melting point | Compound |
| --- | --- |
| 75.5 to 77.7 °C | COc1ccc(N(Cc2cscn2)c2cccc(C(=O)O)c2)cc1OC1CCCC1 [Compound 45] |
| 95.9 to 99.5 °C | COc1ccc(N(Cc2cnc(N(C)C)nc2)c2ccc(C(=O)O)cc2)cc1OC1CCCC1 [Compound 51] |
| 67.3 to 69.7 °C | O=C(O)c1ccc(N(Cc2cncs2)c2ccc(OC(F)F)c(OC3CCCC3)c2)cc1 [Compound 104] |
| 174 to 177.9 °C | COc1ccc(N(Cc2cncnc2)c2ccc(C(=O)O)cc2)cc1OC1CCC1 [Compound 193] |
| 88 to 90.3 °C | COc1ccc(N(Cc2cncs2)c2ccc(C(=O)O)cc2)cc1OC1CCCC1 [Compound 40] |
| 191.3 to 191.5 °C | COc1cc(N(Cc2cncnc2)c2ccc(C(=O)O)cc2)ccc1OC(F)F [Compound 153] |
| 185.6 to 187.2 °C | COc1ccc(N(Cc2cncnc2)c2ccc(C(=O)O)cc2)cc1OCC1CC1 [Compound 195] |
| 160 to 161.7 °C | COc1ccc(N(Cc2cnco2)c2ccc(C(=O)O)cc2)cc1OCC1CC1 [Compound 183] |
| 128.7 to 129.4 °C | COc1ccc(N(Cc2cncs2)c2ccc(C(=O)O)cc2)cc1OCC1CC1 [Compound 72] |
| 148 to 150.3 °C | COc1ccc(N(Cc2cnco2)c2ccc(C(=O)O)cc2)cc1OC1CCC1 [Compound 184] |
| 135.1 to 136.3 °C | O=C(O)c1ccc(N(Cc2cncnc2)c2ccc(OC(F)F)c(OC3CCC3)c2)cc1 [Compound 205] |
| 143.7 to 145.9 °C | COc1ccc(N(Cc2ccc(=O)[nH]c2)c2ccc(C(=O)O)cc2)cc1OC1CCCC1 [Compound 29] |
| 82 to 84.7 °C | COc1ccc(N(Cc2cnc(N(C)C)nc2)c2cccc(C(=O)O)c2)cc1OC1CCCC1 [Compound 52] |
| 156.6 to 159.8 °C | COc1ccc(N(Cc2cncnc2)c2ccc(C(=O)O)cc2)cc1OC1CCCC1 [Compound 43] |
| 178.9 to 184.3 °C | COc1ccc(N(Cc2cccnn2)c2cccc(C(=O)O)c2)cc1OC1CCCC1 [Compound 48] |
| 108.9 to 112.3 °C | COc1ccc(N(Cc2cn[nH]c2)c2ccc(C(=O)O)cc2)cc1OC1CCCC1 [Compound 39] |
| 60.3 to 60.8 °C | COc1ccc(N(Cc2cncs2)c2ccc(C(=O)O)cc2)cc1O[C@@H]1CCOC1 [Compound 71] |
| 86.4 to 88.3 °C | COc1ccc(N(Cc2cncs2)c2ccc(C(=O)O)cc2)cc1OC [Compound 138] |
| 190.9 to 191.9 °C | CCOc1cc(N(Cc2cncnc2)c2ccc(C(=O)O)cc2)ccc1OC [Compound 196] |
| 65.6 to 70.6 °C | COc1ccc(N(Cc2cncs2)c2cccc(C(=O)O)c2)cc1OC1CCCC1 [Compound 35] |
